From the supplement of paper PMC10307832

Experiments:
Assay in all cases: relative viability (nuclei count vs DMSO), 5 days (fraction); higher = more cells survive
[1] = tested on: LU99A
In short: (§1)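 Relative viability was taken as the ratio of nuclei in treated wells to nuclei in vehicle wells. Lung cancer cell lines in 1536-well plates received compounds by pin tool one day after seeding, either one drug alone or a fixed anchor-drug dose plus five library-drug doses (not always all listed) in √10 steps. Nuclei were counted on 4× images after 5 days of treatment, and values are medians of duplicate plates.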

[2] = tested on: NCI-H358
In short: as §1

[3] = tested on: COR-L 105
In short: as §1

[4] = tested on: NCI-H460
In short: as §1

[5] = tested on: LXF-289
In short: as §1

[6] = tested on: NCI-H2342
In short: as §1

[7] = tested on: LCLC-97TM1
In short: as §1

[8] = tested on: LC-2-ad
In short: as §1

[9] = tested on: HCC-78
In short: as §1

[10] = tested on: SK-LU-1
In short: as §1

[11] = tested on: A-427
In short: as §1

[12] = tested on: SW 900
In short: as §1

[13] = tested on: NCI-H1755
In short: as §1

[14] = tested on: EPLC-272H
In short: as §1

[15] = tested on: UMC-11
In short: as §1

[16] = tested on: HCC-366
In short: as §1

[17] = tested on: NCI-H1944
In short: as §1

[18] = tested on: HOP-62
In short: as §1

[19] = tested on: NCI-H1915
In short: as §1

[20] = tested on: NCI-H1975
In short: as §1

[21] = tested on: NCI-H2085
In short: as §1

[22] = tested on: NCI-H2170
In short: as §1

[23] = tested on: NCI-H1793
In short: as §1

C[C@@H]1CN(CC(=O)Nc2ccc3c(c2)Cc2cccc(-c4cc(=O)cc(N5CCOCC5)o4)c2S3)C[C@H](C)O1 + O=C(CCCCCCC(=O)Nc1ccccc1)NO [Vorinostat] (partner 1 µM)
relative viability ([1]; first compound 0.04 µM): 0.444
relative viability ([1]; first compound 0.1265 µM): 0.582
relative viability ([1]; first compound 0.4 µM): 0.544
relative viability ([1]; first compound 4 µM): 0.595
relative viability ([2]; first compound 0.04 µM): 0.724
relative viability ([2]; first compound 0.1265 µM): 0.589
relative viability ([2]; first compound 0.4 µM): 0.687
relative viability ([2]; first compound 4 µM): 0.261
relative viability ([3]; first compound 0.04 µM): 0.799
relative viability ([3]; first compound 0.1265 µM): 0.783
relative viability ([3]; first compound 0.4 µM): 0.926
relative viability ([3]; first compound 4 µM): 0.875
relative viability ([4]; first compound 0.04 µM): 0.69
relative viability ([4]; first compound 0.1265 µM): 0.738
relative viability ([4]; first compound 0.4 µM): 0.704
relative viability ([4]; first compound 4 µM): 0.203
relative viability ([5]; first compound 0.04 µM): 0.534
relative viability ([5]; first compound 0.1265 µM): 0.794
relative viability ([5]; first compound 0.4 µM): 0.88
relative viability ([5]; first compound 4 µM): 0.733
relative viability ([6]; first compound 0.04 µM): 0.609
relative viability ([6]; first compound 0.1265 µM): 0.652
relative viability ([6]; first compound 0.4 µM): 0.668
relative viability ([6]; first compound 4 µM): 0.703
relative viability ([7]; first compound 0.1265 µM): 0.547
relative viability ([7]; first compound 0.4 µM): 0.685
relative viability ([7]; first compound 4 µM): 0.552
relative viability ([8]; first compound 0.04 µM): 0.639
relative viability ([8]; first compound 0.1265 µM): 0.679
relative viability ([8]; first compound 0.4 µM): 0.712
relative viability ([8]; first compound 4 µM): 0.606
relative viability ([9]; first compound 0.04 µM): 0.455
relative viability ([9]; first compound 0.1265 µM): 0.417
relative viability ([9]; first compound 0.4 µM): 0.46
relative viability ([9]; first compound 4 µM): 0.4
relative viability ([10]; first compound 0.04 µM): 0.765
relative viability ([10]; first compound 0.1265 µM): 0.831
relative viability ([10]; first compound 0.4 µM): 0.811
relative viability ([10]; first compound 4 µM): 0.568
relative viability ([11]; first compound 0.04 µM): 0.853
relative viability ([11]; first compound 0.1265 µM): 0.92
relative viability ([11]; first compound 0.4 µM): 0.908
relative viability ([11]; first compound 4 µM): 0.779
relative viability ([12]; first compound 0.04 µM): 0.421
relative viability ([12]; first compound 0.1265 µM): 0.607
relative viability ([12]; first compound 0.4 µM): 0.534
relative viability ([12]; first compound 4 µM): 0.381
relative viability ([13]; first compound 0.04 µM): 0.759
relative viability ([13]; first compound 0.1265 µM): 0.854
relative viability ([13]; first compound 0.4 µM): 0.729
relative viability ([13]; first compound 4 µM): 0.87
relative viability ([14]; first compound 0.04 µM): 0.457
relative viability ([14]; first compound 0.1265 µM): 0.414
relative viability ([14]; first compound 0.4 µM): 0.407
relative viability ([14]; first compound 4 µM): 0.307
relative viability ([15]; first compound 0.04 µM): 0.378
relative viability ([15]; first compound 0.1265 µM): 0.433
relative viability ([15]; first compound 0.4 µM): 0.441
relative viability ([15]; first compound 4 µM): 0.366
relative viability ([16]; first compound 0.04 µM): 0.314
relative viability ([16]; first compound 0.1265 µM): 0.366
relative viability ([16]; first compound 0.4 µM): 0.346
relative viability ([16]; first compound 4 µM): 0.264
relative viability ([17]; first compound 0.1265 µM): 0.716
relative viability ([17]; first compound 0.4 µM): 0.594
relative viability ([17]; first compound 4 µM): 0.637
relative viability ([18]; first compound 0.04 µM): 0.477
relative viability ([18]; first compound 0.1265 µM): 0.648
relative viability ([18]; first compound 0.4 µM): 0.687
relative viability ([18]; first compound 4 µM): 0.509
relative viability ([19]; first compound 0.04 µM): 0.434
relative viability ([19]; first compound 0.1265 µM): 0.538
relative viability ([19]; first compound 0.4 µM): 0.537
relative viability ([19]; first compound 4 µM): 0.421
relative viability ([20]; first compound 0.04 µM): 0.68
relative viability ([20]; first compound 0.1265 µM): 0.717
relative viability ([20]; first compound 0.4 µM): 0.61
relative viability ([20]; first compound 4 µM): 0.536
relative viability ([21]; first compound 0.04 µM): 0.814
relative viability ([21]; first compound 0.1265 µM): 0.782
relative viability ([21]; first compound 0.4 µM): 0.69
relative viability ([21]; first compound 4 µM): 0.667
relative viability ([22]; first compound 0.04 µM): 0.857
relative viability ([22]; first compound 0.1265 µM): 0.811
relative viability ([22]; first compound 0.4 µM): 0.798
relative viability ([22]; first compound 4 µM): 0.742
relative viability ([23]; first compound 0.04 µM): 0.847
relative viability ([23]; first compound 0.1265 µM): 0.745
relative viability ([23]; first compound 0.4 µM): 0.762
relative viability ([23]; first compound 4 µM): 0.574
